Seven molecules from patent US5698411A, “Method for determining activity of enzymes in metabolically active whole cells” (priority 1995, dated 1997) can be followed below.

Common to all, as to type: cell-based, human
Assay [1] deals with metabolically active whole cell. The assay is described as follows: substrate panel in normals and HIV + patients, TB infection (Table 4). Also noted: unit not given here. On the procedure: A panel of assay compounds are assembled consisting of Ala-aminopeptidase and Lys-aminopeptidase, Dipeptidyl peptidase IV (Ala-Ala)2 rhodamine 110 and Cathepsin D to indicate possible TB infection in AIDS related cases.
A panel Of enzymatic substrates is performed consisting of Ala-aminopeptidase and Lys-aminopeptidase, Dipeptidyl peptidase IV (Ala-Ala)2 rhodamine 110 and Cathepsin D to indicate possible TB infection in AIDS related cases.

For assay [2], the system named is granulocytes. As to the kind of experiment: peptidase activity in leukemia and non-leukemia patients, granulocytes (Table 6C). Also noted: unit not given here. From the text:
(§1) Artificial intelligence was used to analyze data of cellular enzyme functions, and determine normal and disease states. Peptidases were used to distinguish leukemia from non-leukemia (output pattern). For input patterns lymphocyte and granulocyte cell types were used with aminopeptidases, cathepsins and dipeptidylpeptidase enzyme activities. In this Example, illustrated in Tables 6A-6C, three normals and three leukemia patients were used as known output patterns for the neural network to learn (in practice, the larger the learning set the more accurate unknown prediction will be). Unknowns were then presented to the learned algorithm as shown in the test case examples. Clinical diagnosis was confirmed by physicians. The trained neural network was able to correctly classify the leukemia from the non-leukemia.

The test system of assay [3] is monocytes. As to the kind of experiment: aberrant enzyme activities in febrile children, monocytes (Table 7).
Assay [4] has as its system granulocytes. As to the kind of experiment: aberrant enzyme activities in febrile children, granulocytes (Table 7).
For assay [5], the system named is lymphocytes. As to the kind of experiment: aberrant enzyme activities in febrile children, lymphocytes (Table 7).
The test system of assay [6] is lymphocytes. As to the kind of experiment: peptidase activity in leukemia and non-leukemia patients, lymphocytes (Table 6C). The arrangement: unit not given here.
From the text: as §1

Molecules are shown by their SMILES. Several values for one entry are separate records, joined by “and”; a condition that tells them apart may be missing. Equal entries are not always repeated.

Regarding `NC(=O)CC[C@H](N)C(=O)N[C@@H](CO)C(=O)Nc1ccc2c(c1)Oc1cc(NC(=O)[C@H](CO)NC(=O)[C@@H](N)CCC(N)=O)ccc1C21OC(=O)c2ccccc21` (relative stereo) [GLN--SER*], the “MEAN DELTA FL” value is 13.7 and 12.7 in assay [1] (HIV + PATIENTS); 11.9 and 6.1 in assay [1] (NORMALS).
`C[C@H](N)C(=O)Nc1ccc2c(c1)Oc1cc(NC(=O)[C@H](C)N)ccc1C21OC(=O)c2ccccc21` [ALA, (Ala)2 Rho 110]: the “enzyme activity, Grans” value in assay [2] (J4 11/21/91 acute leuk.) stood at 193.43; in assay [2] (J4 12/2/91 A L), 139.53; in assay [2] (J4 12/3/91 acute leuk.) it was 138.89; in assay [2] (J5 11/27/91 A M L), 194.85; in assay [2] (J19 11/27/91 C L L), 143.11; in assay [2] (J22 12/2/91 A M L) it was 157.12. For the same molecule, the “enzyme activity, Grans” value in assay [2] (J22 12/9/91 A M L) was determined as 157.48; in assay [2] (N191 normal) it was 177.32; in assay [2] (N192 normal), 154.84; in assay [2] (N193 normal) it was 178.64; in assay [2] (N194 normal), 164.00; in assay [2] (N195 normal) it was 221.28. For the same molecule, the “enzyme activity, Grans” value is reported as 188.20 in assay [2] (N197 normal); 157.30 in assay [2] (N199 normal); 171.06 in assay [2] (N200 normal); 206.06 in assay [2] (N201 normal); 201.17 in assay [2] (N202 normal); 232.57 in assay [2] (N206 normal). Besides, the “enzyme activity, Grans” value in assay [2] (P68 tachycardia) is given as 276.07; in assay [2] (P69 pancreatic CA), 204.02; in assay [2] (P70 cirrhosis/hemobilia), 236.23; in assay [2] (P71 ac. pyelonephritis), 185.37. Besides, the “aberrant enzyme activity, MONOS” value is listed as “.smallcircle” in assay [3] (P88 Enteritis); “.smallcircle” in assay [3] (P89 Viral Stomatitis); “+ (>0.25 Increase over normal range)” in assay [3] (P92 Adenitis); “+ (>0.25 Increase over normal range)” in assay [3] (P97 Pyelonephritis); “+ (>0.25 Increase over normal range)” in assay [3] (P102 UTI); “.smallcircle” in assay [3] (P103 Viral Syndrome). The “MEAN DELTA FL” value in assay [1] (HIV + PATIENTS) stood at 59.0; in assay [1] (NORMALS), 132.0. Besides, the “aberrant enzyme activity, GRANS” value in assay [4] (P88 Enteritis) is recorded as “.smallcircle”; in assay [4] (P89 Viral Stomatitis), “.smallcircle”; in assay [4] (P92 Adenitis), “+ (>0.25 Increase over normal range)”; in assay [4] (P97 Pyelonephritis), “+ (>0.25 Increase over normal range)”; in assay [4] (P102 UTI) it was “.smallcircle”; in assay [4] (P103 Viral Syndrome), “.smallcircle”. The “aberrant enzyme activity, LYMPHS” value in assay [5] (P88 Enteritis), in assay [5] (P89 Viral Stomatitis), in assay [5] (P92 Adenitis), in assay [5] (P97 Pyelonephritis), in assay [5] (P102 UTI) and in assay [5] (P103 Viral Syndrome) was “.smallcircle” throughout. In addition, the “enzyme activity, Lymphs” value in assay [6] (J4 11/21/91 acute leuk.) was 86.00; in assay [6] (J4 12/2/91 A L) it was 68.10; in assay [6] (J4 12/3/91 acute leuk.), 74.64; in assay [6] (J5 11/27/91 A M L) it was 92.44; in assay [6] (J19 11/27/91 C L L), 47.78; in assay [6] (J22 12/2/91 A M L), 84.42. In addition, the “enzyme activity, Lymphs” value in assay [6] (J22 12/9/91 A M L) came to 83.48; in assay [6] (N191 normal) it was 95.72; in assay [6] (N192 normal), 103.31; in assay [6] (N193 normal), 100.50; in assay [6] (N194 normal), 97.02; in assay [6] (N195 normal) it was 118.81. Further, the “enzyme activity, Lymphs” value in assay [6] (N197 normal) stood at 96.36; in assay [6] (N199 normal), 91.07; in assay [6] (N200 normal) it was 101.38; in assay [6] (N201 normal), 106.72; in assay [6] (N202 normal), 118.37; in assay [6] (N206 normal), 122.71. Moreover, the “enzyme activity, Lymphs” value is listed as 1471.10 in assay [6] (P68 tachycardia), 130.34 in assay [6] (P69 pancreatic CA), 141.87 in assay [6] (P70 cirrhosis/hemobilia) and 109.26 in assay [6] (P71 ac. pyelonephritis).
For `C[C@H](N)C(=O)NCC(=O)Nc1ccc2c(c1)Oc1cc(NC(=O)CNC(=O)[C@H](C)N)ccc1C21OC(=O)c2ccccc21` [ALA--GLY****], the “MEAN DELTA FL” value was 39.9 and 29.7 in assay [1] (HIV + PATIENTS); 48.0 and 31.6 in assay [1] (NORMALS).
For `CC(C)C[C@H](NC(=O)CN)C(=O)Nc1ccc2c(c1)Oc1cc(NC(=O)[C@H](CC(C)C)NC(=O)CN)ccc1C21OC(=O)c2ccccc21` [GL, (H Gly--Leu)2 Rho 110 .2FTA], the “aberrant enzyme activity, MONOS” value in assay [3] (P92 Adenitis), in assay [3] (P97 Pyelonephritis) and in assay [3] (P103 Viral Syndrome) was “.smallcircle” throughout. For the same molecule, the “MEAN DELTA FL” value was 16.3 in assay [1] (HIV + PATIENTS) and 9.5 in assay [1] (NORMALS). The “aberrant enzyme activity, GRANS” value in assay [4] (P92 Adenitis) and in assay [4] (P103 Viral Syndrome) was “.smallcircle” throughout. Also, the “aberrant enzyme activity, LYMPHS” value in assay [5] (P92 Adenitis), in assay [5] (P97 Pyelonephritis) and in assay [5] (P103 Viral Syndrome) was “.smallcircle” throughout.
For the molecule `NCC(=O)N1CCC[C@H]1C(=O)Nc1ccc2c(c1)Oc1cc(NC(=O)[C@@H]3CCCN3C(=O)CN)ccc1C21OC(=O)c2ccccc21` [GLY--PRO*], the “MEAN DELTA FL” value turned out to be 21.4 in assay [1] (HIV + PATIENTS); 18.4 in assay [1] (HIV + PATIENTS, listed as GLY--PRO****); 50.9 in assay [1] (NORMALS); 46.7 in assay [1] (NORMALS, listed as GLY--PRO****).
Consider `NC(=O)CC[C@H](N)C(=O)N[C@@H](CO)C(=O)Nc1ccc2c(c1)Oc1cc(NC(=O)[C@H](CO)NC(=O)[C@@H](N)CCC(N)=O)ccc1C21OC(=O)c2ccccc21` [QS, (H-L-Gln--Ser)2 Rho 110 .2TFA], for which the “enzyme activity, Grans” value in assay [2] (J4 11/21/91 acute leuk.) stood at 0.22; in assay [2] (J4 12/2/91 A L), 0.44; in assay [2] (J4 12/3/91 acute leuk.), 0.19; in assay [2] (J22 12/2/91 A M L), 0.10; in assay [2] (J22 12/9/91 A M L) it was 0.24; in assay [2] (N191 normal), 0.19. Further, the “enzyme activity, Grans” value in assay [2] (N192 normal) is reported as 0.15; in assay [2] (N193 normal), 0.14; in assay [2] (N194 normal) it was 0.07; in assay [2] (N195 normal) it was 0.21; in assay [2] (N197 normal), 0.24; in assay [2] (N199 normal), 0.05. In addition, the “enzyme activity, Grans” value in assay [2] (N200 normal) amounted to 0.06; in assay [2] (N201 normal) it was 0.09; in assay [2] (N202 normal) it was 0.08; in assay [2] (N206 normal), 0.27; in assay [2] (P68 tachycardia), 0.33; in assay [2] (P69 pancreatic CA), 0.37. Besides, the “enzyme activity, Grans” value in assay [2] (P70 cirrhosis/hemobilia) turned out to be 0.19; in assay [2] (P71 ac. pyelonephritis), 0.51. Further, the “aberrant enzyme activity, MONOS” value in assay [3] (P92 Adenitis) and in assay [3] (P97 Pyelonephritis) was “.smallcircle” each time. Moreover, the “aberrant enzyme activity, GRANS” value in assay [4] (P97 Pyelonephritis) is “.smallcircle”. In addition, the “aberrant enzyme activity, LYMPHS” value in assay [5] (P92 Adenitis), in assay [5] (P97 Pyelonephritis) and in assay [5] (P103 Viral Syndrome) was “.smallcircle” throughout. Further, the “enzyme activity, Lymphs” value in assay [6] (J4 11/21/91 acute leuk.) amounted to 0.05; in assay [6] (J4 12/2/91 A L), 0.01; in assay [6] (J4 12/3/91 acute leuk.) it was 0.06; in assay [6] (J5 11/27/91 A M L), 0.07; in assay [6] (J19 11/27/91 C L L), 0.06; in assay [6] (J22 12/2/91 A M L) it was 0.02. The “enzyme activity, Lymphs” value in assay [6] (J22 12/9/91 A M L) is 0.02; in assay [6] (N191 normal) it was 0.02; in assay [6] (N192 normal) it was 0.03; in assay [6] (N193 normal), 0.03; in assay [6] (N194 normal), 0.02; in assay [6] (N195 normal), 0.04. The “enzyme activity, Lymphs” value in assay [6] (N197 normal) was 0.06; in assay [6] (N199 normal), 0.02; in assay [6] (N200 normal), 0.01; in assay [6] (N201 normal), 0.02; in assay [6] (N202 normal), 0.01; in assay [6] (N206 normal), 0.04. For the same molecule, the “enzyme activity, Lymphs” value in assay [6] (P68 tachycardia) is on record as 0.02; in assay [6] (P69 pancreatic CA), 0.31; in assay [6] (P70 cirrhosis/hemobilia) it was 0.04; in assay [6] (P71 ac. pyelonephritis) it was 0.05.
As to `C[C@@H](O)[C@H](N)C(=O)N1CCC[C@H]1C(=O)Nc1ccc2c(c1)Oc1cc(NC(=O)[C@@H]3CCCN3C(=O)[C@@H](N)[C@@H](C)O)ccc1C21OC(=O)c2ccccc21` [THR--PRO*], the “MEAN DELTA FL” value in assay [1] (HIV + PATIENTS) was determined as 10.2; in assay [1] (NORMALS) it was 17.3.
